Source: patent publication US20200172473A1, “DUAL MODULATORS OF FARNESOID X RECEPTOR AND SOLUBLE EPOXIDE HYDROLASE” (JOHANN WOLFGANG GOETHE-UNIVERSITÄT FRANKFURT AM MAIN, priority 2017, published 2020)

Columns and labels:
human FXR = biological target: T1, human FXR (Homo sapiens, UniProt Q96RI1); assay: full-length FXR reporter gene (transactivation) assay in HeLa cells; assay type: cell-based; conditions: for Emax: HeLa, read-out: FXR activation max. rel. activation (converted); for EC50: full-length FXR reporter gene assay, HeLa cells, read-out: FXR activation EC50
T1 construct: characterized in a full-length (fl) FXR reporter gene assay in HeLa cells; expressed in transfected cells; host or cells: HeLa
T1 sequence (Q96RI1 1-486): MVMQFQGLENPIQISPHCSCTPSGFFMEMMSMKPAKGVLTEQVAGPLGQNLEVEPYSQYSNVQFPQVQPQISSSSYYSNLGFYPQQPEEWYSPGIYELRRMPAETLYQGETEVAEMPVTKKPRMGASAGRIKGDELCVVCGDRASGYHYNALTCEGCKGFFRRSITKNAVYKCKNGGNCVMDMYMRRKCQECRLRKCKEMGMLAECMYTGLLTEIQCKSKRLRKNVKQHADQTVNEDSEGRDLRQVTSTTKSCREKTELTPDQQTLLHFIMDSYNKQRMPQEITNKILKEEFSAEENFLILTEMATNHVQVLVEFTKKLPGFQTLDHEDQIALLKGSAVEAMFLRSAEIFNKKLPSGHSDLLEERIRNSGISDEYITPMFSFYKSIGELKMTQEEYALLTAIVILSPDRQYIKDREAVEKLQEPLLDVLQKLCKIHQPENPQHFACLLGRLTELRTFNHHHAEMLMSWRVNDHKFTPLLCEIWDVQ
T1 sequence (P19793 1-462 partner): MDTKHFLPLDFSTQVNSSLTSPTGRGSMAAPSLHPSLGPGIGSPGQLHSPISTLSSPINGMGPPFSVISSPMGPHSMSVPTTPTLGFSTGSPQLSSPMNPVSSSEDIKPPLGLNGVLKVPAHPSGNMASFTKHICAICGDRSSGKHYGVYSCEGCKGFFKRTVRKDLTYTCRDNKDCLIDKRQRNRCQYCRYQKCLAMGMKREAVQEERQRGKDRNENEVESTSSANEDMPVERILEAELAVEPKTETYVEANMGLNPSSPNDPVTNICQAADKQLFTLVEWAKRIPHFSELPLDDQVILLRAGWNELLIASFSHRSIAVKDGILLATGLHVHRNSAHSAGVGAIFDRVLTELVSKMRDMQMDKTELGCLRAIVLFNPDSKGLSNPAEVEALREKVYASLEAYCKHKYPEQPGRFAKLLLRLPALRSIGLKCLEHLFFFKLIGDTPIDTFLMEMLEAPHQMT
Source text: (§1) This assay is based on a reporter construct containing a firefly luciferase under the control of the FXR response element from bile salt export protein (BSEP). FXR and its hetero dimer partner retinoid X receptor (RXR) as expression constructs under the control of a CMV promoter as well as a constitutively expressed renilla luciferase (SV40 promoter) for normalization and toxicity control were co-transfected. […] The sEH inhibitory potency of the test compounds was quantified in a fluorescence-based assay using recombinant enzyme and the fluorogenic sEH substrate PHOME^37 that is hydrolyzed to a fluorescent 6-methoxynaphtaldehyde by sEH.
Plasmids: pcDNA3-hFXR contains the sequence of human FXR and was already published elsewhere.^47 pGL3 basic (Promega Corporation, Fitchburg, Wis., USA) was used as a reporter plasmid, with a shortened construct of the promotor of the bile salt export protein (BSEP) cloned into the SacI/NheI cleavage site in front of the luciferase gene.^48 pRL-V40 (Promega) was transfected as a control for normalization of transfection efficiency and cell growth. pSG5-hRXR was already published elsewhere as well.^49
Assay procedure: HeLa cells were grown in DMEM high glucose supplemented with 10% FCS, sodium pyruvate (1 mM), penicillin (100 U/mL) and streptomycin (100 μg/mL) at 37° C. and 5% CO2. […] Transient transfection of HeLa cells with BSEP-pGL3, pRL-SV40 and the expression plasmids pcDNA3-hFXR and pSG5-hRXR was carried out using calcium phosphate transfection method. […] Each concentration was tested in triplicate wells and each experiment was repeated independently at least three times. […] Luminescence was measured with a Tecan Infinite M200 luminometer (Tecan Deutschland GmbH, Crailsheim, Germany). Normalization of transfection efficiency and cell growth was done by division of firefly luciferase data by renilla luciferase data multiplied by 1000 resulting in relative light units (RLU). Fold activation was obtained by dividing the mean RLU of the tested compound at a respective concentration by the mean RLU of untreated control. […] EC50 and standard error of the mean values were calculated with the mean relative activation values of at least three independent experiments by SigmaPlot 10.0 (Systat Software GmbH, Erkrath, Germany) using a four parameter logistic regression.

[1] = biological target: T2, cellular sEH (HepG2 cell homogenates) (Homo sapiens, UniProt P34913); conditions: 10 μM (positive control); DMSO 63±16, blank 499±123
T2 sequence (P34913 1-555): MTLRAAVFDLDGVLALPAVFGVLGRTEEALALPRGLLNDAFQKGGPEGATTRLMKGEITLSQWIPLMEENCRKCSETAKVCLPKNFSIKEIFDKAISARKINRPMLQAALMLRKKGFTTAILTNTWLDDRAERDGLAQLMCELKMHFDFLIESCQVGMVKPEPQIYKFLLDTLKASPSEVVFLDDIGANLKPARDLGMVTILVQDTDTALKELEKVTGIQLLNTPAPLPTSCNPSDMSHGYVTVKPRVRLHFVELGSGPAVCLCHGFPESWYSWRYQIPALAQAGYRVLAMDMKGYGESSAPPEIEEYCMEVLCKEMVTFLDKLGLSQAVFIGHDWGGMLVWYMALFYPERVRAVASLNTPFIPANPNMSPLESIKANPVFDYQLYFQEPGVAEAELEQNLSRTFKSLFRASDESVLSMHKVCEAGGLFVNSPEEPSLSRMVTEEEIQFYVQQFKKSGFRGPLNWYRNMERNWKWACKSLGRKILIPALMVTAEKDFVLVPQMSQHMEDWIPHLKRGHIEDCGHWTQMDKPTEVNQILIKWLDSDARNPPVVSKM
Protocol: 25 ng (+)14(15)-EET-d11 (Cayman Chemical, Ann Arbor, USA) was added and incubation was continued for additional to min at 37° C. A blank test was performed with PBS (containing 0.1 mg/ml BSA) treated likewise. The reactions were stopped by adding 100 μl of ice cold methanol. After centrifugation (2000 rpm, 4° C., 5 min), supernatants were analyzed by LC-MS/MS and the amounts of (±)14(15)-EET-d11 and the corresponding (±)14(15)-DHET-d11 were determined.

aqueous solubility = assay type: physicochemical; conditions: LLOQ 0.1 μg/mL
recombinant human sEH = biological target: T3, recombinant human sEH (Homo sapiens, UniProt P34913); assay: fluorescence-based sEH activity assay with PHOME substrate; assay type: biochemical; conditions: recombinant human sEH, PHOME; read-out: sEH inhibition IC50
T3 sequence (P34913 1-555): T2 sequence (P34913 1-555)
Source text: as §1
The sEH inhibitory potency of the compounds were determined in a fluorescence-based 96-well sEH activity assay using recombinant human enzyme^50,51. Non-fluorescent PHOME (3-phenylcyano-(6-methoxy-2-naphthalenyl)methyl ester 2-oxiraneacetic acid; Cayman Chemicals) which can be hydrolyzed by the sEH to fluorescent 6-methoxynaphthaldehyde served as substrate. Recombinant human sEH (in Bis-Tris buffer, pH 7, with 0.1 mg/mL BSA containing a final concentration of 0.01% Triton-X 100) was pre-incubated with test compounds (in DMSO, final DMSO concentration: 1%) for 30 min at room temperature. […] A blank control (no protein and no compound) as well as a positive control (no compound) were executed. All experiments were conducted in triplicate and repeated in at least three independent experiments. For IC50 calculation, dose-response curves of increasing compound concentrations were recorded.

[2] = test system: PPARγ target genes CD36 and FAM3A; assay: PPARγ target gene mRNA quantification (qRT-PCR) in HepG2 cells; assay type: cell-based; conditions: HepG2, 1 μM

| Structure (SMILES) | Emax (human FXR) | IC50 (recombinant human sEH) | EC50 (human FXR) | other results |
| --- | --- | --- | --- | --- |
| O=C(Nc1ccc(I)cc1)NC1CCCCC1 [CIU, reference compound] |  |  |  | activity in FXR reporter gene assay (human FXR; 10 μM): no activity; (±)14(15)-EET-d11/(±)14(15)-DHET-d11 ratio [1]: 519±55 |
| CC(C)S(=O)(=O)Nc1ccc(CNC(=O)c2ccc(C(C)(C)C)cc2)c(Cl)c1 [compound 81, 4-(tert-Buty)-N-(2-chloro-4-(isopropylsulfonamide)benzyl)-benzamide] | 11% | 11 ± 0.3 nM | 420 ± 20 nM |  |
| CCS(=O)(=O)Nc1ccc(CNC(=O)c2ccc(C(C)(C)C)cc2)c(Cl)c1 [compound 82, 4-(tert-Butyl)-N-(2-chloro-4-(ethylsulfonamido)benzyl)-benzamide] | 23% | 6 ± 0.5 nM | 490 ± 50 nM |  |
| CCc1ccc(CCOc2ccc(CC3SC(=O)NC3=O)cc2)nc1 (centres unmarked) [pioglitazone, reference compound] |  |  |  | CD36 mRNA expression compared to vehicle set as 100% [2]: 353±43%; FAM3A mRNA expression compared to vehicle set as 100% [2]: 310±66% |

The next lines start with results.

| Emax (human FXR) | IC50 (recombinant human sEH) | EC50 (human FXR) | Structure (SMILES) | other results |
| --- | --- | --- | --- | --- |
| 21% |  |  | CC(C)(C)c1ccc(C(=O)NCc2ccc(NC(=O)C(F)(F)F)cc2Cl)cc1 [compound 56] | aqueous solubility (aqueous solubility): < 0.1 µg/mL |
|  | 380 ± 50 nM |  | CC(C)(C)c1ccc(C(=O)NCc2ccc(NS(C)(=O)=O)cc2Cl)c(O)c1 [compound 77, 4-(tert-Butyl-2-hydroxy)-N-(2-chloro-4-(methylsulfonamido)benzyl)benzamide] | FXR activation (result in words) (human FXR): antagonistic |
| 24% | 16 ± 0.6 nM | 3 ± 0.001 nM | CC(C)(C)c1ccc(C(=O)NCc2ccc(NS(C)(=O)=O)cc2Cl)cc1O [compound 78, 4-(tert-Butyl-3-hydroxy)-N-(2-chloro-4-(methylsulfonamido)benzyl)benzamide] |  |
| 19% | 2 ± 0.08 nM | 1200 ± 180 nM | CC(C)(C)c1ccc(C(=O)NCc2ccc(NS(C)(=O)=O)cc2C(F)(F)F)cc1 [compound 80, 4-(tert-Butyl)-N-(2-trifluoromethyl-4-(methylsulfonamido)benzyl)benzamide] |  |
| 23% | 45 ± 2 nM | 1460 ± 23 nM | CN(C)c1ccc(C(=O)NCc2ccc(NS(C)(=O)=O)cc2Cl)cc1 [compound 83, 4-(Dimethylamino)-N-(2-chloro-4-(methylsulfonamido)benzyl)benzamide] |  |
| 31% | 4 ± 0.4 nM | 540 ± 20 nM | CS(=O)(=O)Nc1ccc(CNC(=O)c2ccc(C3(C(F)(F)F)CC3)cc2)c(Cl)c1 [compound 84, 4-((1-Trifluoromethyl)cycloprop-1-yl)-N-(2-chloro-4-(methylsulfonamido)benzyl)benzamide] |  |
